We go through 7 compounds from ChEMBL document CHEMBL5523675, “Novel mitochondrial and DNA damaging fluorescent Calix[4]arenes bearing isatin groups as aromatase inhibitors: Design, synthesis and anticancer activity” (Bioorg Med Chem, 2024).

Series [1] in a line: Antiproliferative activity against human PNT1A cells assessed as inhibition of cell growth measured after 48 hrs by Alamar blue dye based assay. In kind it is toxicity. (In general: The colour change of resazurin is a common sign of viable cells or microbes.)
Series [2] relates to MCF7. In words: Antiproliferative activity against human MCF7 cells assessed as inhibition of cell growth measured after 48 hrs by Alamar blue dye based assay. Format: functional. To be noted: MCF7, 48 h.
Series [3] concerns MDA-MB-231. In words: Antiproliferative activity against human MDA-MB-231 cells assessed as inhibition of cell growth measured after 48 hrs by Alamar blue dye based assay. Format: functional. The conditions noted are these: MDA-MB-231, 48 h.
Series [4] concerns PNT1A. Nature of the series: Induction of apoptosis in human PNT1A cells assessed as live cells incubated for 48 hrs by annexin V and 7-AAD staining based flow cytometry analysis (reference value: 99.69%). Format: functional. A general note: A flow cytometer gives signals particle by particle.
The test system of series [5] is PNT1A. In words: Induction of apoptosis in human PNT1A cells assessed as early apoptotic cells incubated for 48 hrs by annexin V and 7-AAD staining based flow cytometry analysis (reference value: 0.04%). In kind it is functional.
Series [6] relates to PNT1A. Nature of the series: Induction of apoptosis in human PNT1A cells assessed as late apoptotic cells incubated for 48 hrs by annexin V and 7-AAD staining based flow cytometry analysis (reference value: 0.04%). In kind it is functional.
For series [7], the system named is PNT1A. Nature of the series: Induction of apoptosis in human PNT1A cells assessed as necrosis incubated for 48 hrs by annexin V and 7-AAD staining based flow cytometry analysis (reference value: 0.22%). Format: functional.
Series [8] relates to MDA-MB-231. In words: Induction of apoptosis in human MDA-MB-231 cells assessed as live cells incubated for 48 hrs by annexin V and 7-AAD staining based flow cytometry analysis (reference value: 99.61%). Format: functional.
For series [9], the system named is MDA-MB-231. In words: Induction of apoptosis in human MDA-MB-231 cells assessed as early apoptotic cells incubated for 48 hrs by annexin V and 7-AAD staining based flow cytometry analysis (reference value: 0.18%). Format: functional.
Series [10] concerns MDA-MB-231. In words: Induction of apoptosis in human MDA-MB-231 cells assessed as late apoptotic cells incubated for 48 hrs by annexin V and 7-AAD staining based flow cytometry analysis (reference value: 0.12%). Format: functional.
Series [11] relates to MDA-MB-231. In words: Induction of apoptosis in human MDA-MB-231 cells assessed as necrosis incubated for 48 hrs by annexin V and 7-AAD staining based flow cytometry analysis (reference value: 0.09%). Format: functional.
In series [12] the test system is MCF7. In words: Induction of apoptosis in human MCF7 cells assessed as live cells incubated for 48 hrs by annexin V and 7-AAD staining based flow cytometry analysis (reference value: 99.14%). In kind it is functional.
Series [13] has as its system MCF7. In words: Induction of apoptosis in human MCF7 cells assessed as early apoptotic cells incubated for 48 hrs by annexin V and 7-AAD staining based flow cytometry analysis (reference value: 0.14%). In kind it is functional.
The subject of series [14] is MCF7. Nature of the series: Induction of apoptosis in human MCF7 cells assessed as late apoptotic cells incubated for 48 hrs by annexin V and 7-AAD staining based flow cytometry analysis (reference value: 0.68%). In kind it is functional.
Series [15] relates to MCF7. Nature of the series: Induction of apoptosis in human MCF7 cells assessed as necrosis incubated for 48 hrs by annexin V and 7-AAD staining based flow cytometry analysis (reference value: 0.03%). Format: functional.
The target of the next series is T1, Aromatase (Homo sapiens, UniProt P11511).
T1 sequence (P11511 whole entry): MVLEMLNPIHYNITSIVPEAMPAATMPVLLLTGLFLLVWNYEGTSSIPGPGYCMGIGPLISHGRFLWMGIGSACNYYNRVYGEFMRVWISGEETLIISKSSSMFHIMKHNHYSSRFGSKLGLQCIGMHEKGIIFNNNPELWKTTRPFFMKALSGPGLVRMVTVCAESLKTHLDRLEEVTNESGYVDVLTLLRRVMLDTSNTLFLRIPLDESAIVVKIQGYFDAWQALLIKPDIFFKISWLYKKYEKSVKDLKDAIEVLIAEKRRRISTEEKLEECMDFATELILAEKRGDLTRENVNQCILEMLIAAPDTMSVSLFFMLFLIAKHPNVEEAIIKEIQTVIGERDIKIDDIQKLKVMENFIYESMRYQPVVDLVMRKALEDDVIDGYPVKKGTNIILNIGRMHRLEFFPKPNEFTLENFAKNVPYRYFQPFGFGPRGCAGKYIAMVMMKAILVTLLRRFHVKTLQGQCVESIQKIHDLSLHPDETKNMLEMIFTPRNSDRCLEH
Nature of the series: Inhibition of human Aromatase by fluorimetric assay.

Series [16] is described as follows: Genotoxicity in human MCF7 cells assessed as abnormal tail nuclei measured after 48 hrs by ethidium bromide staining based fluorescent microscopic analysis. To be noted: mcf7, 48 h. In kind it is toxicity, cell-based.
Series [17] is described as follows: Genotoxicity in human MCF7 cells assessed as appearance of damaged DNA structures measured after 48 hrs by ethidium bromide staining based fluorescent microscopic analysis. Format: toxicity, cell-based. The conditions noted are these: mcf7, 48 h.
The nature of series [18]: Genotoxicity in human MDA-MB-231 cells assessed as appearance of damaged DNA structures measured after 48 hrs by ethidium bromide staining based fluorescent microscopic analysis. Format: toxicity, cell-based. To be noted: mda-mb-231, 48 h.
Series [19] can be described thus: Genotoxicity in human MDA-MB-231 cells assessed as abnormal tail nuclei measured after 48 hrs by ethidium bromide staining based fluorescent microscopic analysis. Format: toxicity, cell-based. The conditions noted are these: mda-mb-231, 48 h.

Take `C[n+]1ccc(/C=C/c2cc3c(O)c(c2)Cc2cc(C(C)(C)C)cc(c2OCCCn2cc(CN4C(=O)C(=O)c5cc(Br)ccc54)nn2)Cc2cc(/C=C/c4cc[n+](C)cc4)cc(c2O)Cc2cc(C(C)(C)C)cc(c2OCCCn2cc(CN4C(=O)C(=O)c5cc(Br)ccc54)nn2)C3)cc1.[I-].[I-]`: the IC50 at 48 h in [1] is 57.2 µM. For the same compound, the IC50 in the series with MCF7 [2] was determined as 10.1 µM; in the series on MDA-MB-231 [3] it was 3.78 µM; on Aromatase it was 0.315 µM. Besides, the Live cells in the series on PNT1A [4] is given as 96.14%. Also, the Activity in the series with PNT1A [5] is on record as 2.6%; with PNT1A [6], 1.13%; with PNT1A [7], 0.14%; in the series with MDA-MB-231 [8], 87.12%; with MDA-MB-231 [9] it was 0.4%; with MDA-MB-231 [10], 1.6%. Besides, the Activity in the series with MDA-MB-231 [11] was 10.87%; in the series with MCF7 [12], 40.42%; in the series with MCF7 [13], 34.66%; in the series with MCF7 [14] it was 24.62%; in the series on MCF7 [15], 0.3%; in series [16], “Toxic”. Also, the Activity result in [17], in series [18] and in series [19] was “Toxic” throughout.

As for `Cc1ccc2c(c1)C(=O)C(=O)N2Cc1cn(CCCOc2c3cc(C(C)(C)C)cc2Cc2cc(/C=C/c4cc[n+](C)cc4)cc(c2O)Cc2cc(C(C)(C)C)cc(c2OCCCn2cc(CN4C(=O)C(=O)c5cc(C)ccc54)nn2)Cc2cc(/C=C/c4cc[n+](C)cc4)cc(c2O)C3)nn1.[I-].[I-]`, in series [1], the IC50 at 48 h came out at 74.9 µM. The IC50 with MCF7 [2] is 10.2 µM; in the series on MDA-MB-231 [3], 5.23 µM; against Aromatase, 0.218 µM. Moreover, the Live cells in the series on PNT1A [4] turned out to be 95.6%. Moreover, the Activity with PNT1A [5] was 3.99%; in the series with PNT1A [6], 0.35%; with PNT1A [7], 0.06%; with MDA-MB-231 [8] it was 83.89%; in the series on MDA-MB-231 [9], 0.02%; in the series with MDA-MB-231 [10], 1.31%. In addition, the Activity in the series on MDA-MB-231 [11] was 14.78%; in the series with MCF7 [12], 71.51%; in the series on MCF7 [13], 10.49%; with MCF7 [14], 15.04%; in the series on MCF7 [15], 2.96%; in series [16], “Toxic”. Moreover, the Activity result in series [17], in series [18] and in [19] was “Toxic” in each case.

For `C[n+]1ccc(/C=C/c2cc3c(O)c(c2)Cc2cc(C(C)(C)C)cc(c2OCCCn2cc(CN4C(=O)C(=O)c5cc(F)ccc54)nn2)Cc2cc(/C=C/c4cc[n+](C)cc4)cc(c2O)Cc2cc(C(C)(C)C)cc(c2OCCCn2cc(CN4C(=O)C(=O)c5cc(F)ccc54)nn2)C3)cc1.[I-].[I-]`, the IC50 at 48 h in [1] turned out to be 62.9 µM. For the same compound, the IC50 is 11.6 µM in the series on MCF7 [2], 5.59 µM in the series with MDA-MB-231 [3] and 0.711 µM at Aromatase. Further, the Live cells with PNT1A [4] is on record as 93.92%. The Activity stood at 5.69% with PNT1A [5]; 0.28% in the series on PNT1A [6]; 0.1% with PNT1A [7]; 64.85% in the series with MDA-MB-231 [8]; 0.11% in the series with MDA-MB-231 [9]; 2.03% with MDA-MB-231 [10]. In addition, the Activity is listed as 33.01% with MDA-MB-231 [11]; 41.92% with MCF7 [12]; 2.18% with MCF7 [13]; 45.79% in the series on MCF7 [14]; 10.11% in the series with MCF7 [15]; “Toxic” in series [16]. The Activity entry in series [17], in [18] and in [19] was “Toxic” in each case.

Take `C[n+]1ccc(/C=C/c2cc3c(O)c(c2)Cc2cc(C(C)(C)C)cc(c2OCCCn2cc(CN4C(=O)C(=O)c5ccccc54)nn2)Cc2cc(/C=C/c4cc[n+](C)cc4)cc(c2O)Cc2cc(C(C)(C)C)cc(c2OCCCn2cc(CN4C(=O)C(=O)c5ccccc54)nn2)C3)cc1.[I-].[I-]`: the IC50 at 48 h in series [1] is 77.6 µM. Besides, the IC50 in the series on MCF7 [2] was found to be 19.2 µM; in the series on MDA-MB-231 [3] it was 9.24 µM; at Aromatase, 0.518 µM. In addition, in the series on PNT1A [4], the Live cells is given as 99.14%. The Activity in the series on PNT1A [5] stood at 0.16%; in the series on PNT1A [6], 0.08%; in the series with PNT1A [7] it was 0.63%; with MDA-MB-231 [8] it was 91.42%; in the series with MDA-MB-231 [9], 0.26%; in the series with MDA-MB-231 [10] it was 1.66%. The Activity is recorded as 6.66% with MDA-MB-231 [11]; 50.95% with MCF7 [12]; 8.09% in the series on MCF7 [13]; 37.69% in the series on MCF7 [14]; 3.27% in the series on MCF7 [15]; “Toxic” in [16]. Further, the Activity entry in series [17], in [18] and in [19] was “Toxic” each time.

For the compound `C[n+]1ccc(/C=C/c2cc3c(O)c(c2)Cc2cc(C(C)(C)C)cc(c2OCCCn2cc(CBr)nn2)Cc2cc(/C=C/c4cc[n+](C)cc4)cc(c2O)Cc2cc(C(C)(C)C)cc(c2OCCCn2cc(CBr)nn2)C3)cc1`, the IC50 at 48 h in [1] stood at 86.4 µM. For the same compound, the IC50 with MCF7 [2] was determined as 28.4 µM; in the series on MDA-MB-231 [3] it was 22.8 µM.

In the case of `O=c1[nH]cc(F)c(=O)[nH]1` [FLUOROURACIL], the IC50 at 48 h in [1] was determined as 192 µM. For the same compound, the IC50 in the series on MCF7 [2] worked out at 35.3 µM; with MDA-MB-231 [3], 6.81 µM.

Turning to `C[n+]1ccc(/C=C/c2cc3c(O)c(c2)Cc2cc(C(C)(C)C)cc(c2OCCCn2cc(CN4C(=O)C(=O)c5cc(I)ccc54)nn2)Cc2cc(/C=C/c4cc[n+](C)cc4)cc(c2O)Cc2cc(C(C)(C)C)cc(c2OCCCn2cc(CN4C(=O)C(=O)c5cc(I)ccc54)nn2)C3)cc1.[I-].[I-]`, the IC50 at 48 h in [1] is 72.5 µM. Besides, the IC50 with MCF7 [2] came out at 15.1 µM; with MDA-MB-231 [3], 3.98 µM; on Aromatase it was 1.03 µM. The Live cells with PNT1A [4] was 96.68%. The Activity in the series with PNT1A [5] was 2.22%; in the series with PNT1A [6], 1.09%; in the series with PNT1A [7] it was 0.02%; with MDA-MB-231 [8], 84.61%; with MDA-MB-231 [9], 0.21%; in the series on MDA-MB-231 [10] it was 1.57%. In addition, the Activity in the series with MDA-MB-231 [11] is reported as 13.61%; with MCF7 [12] it was 49.15%; in the series with MCF7 [13], 12.97%; in the series on MCF7 [14] it was 36.55%; with MCF7 [15], 1.33%; in series [16] it was “Toxic”. Besides, the Activity entry in series [17], in series [18] and in [19] was “Toxic” in each case.

What is called IC50 is the midpoint of a concentration-inhibition curve.
